Data taken from patent US20230002377A1, “THERAPEUTIC COMBINATIONS OF DRUGS AND METHODS OF USING THEM” (HARMONY BIOSCIENCES, LLC, priority 2020, published 2023).

Assays:
[1] = Plasma concentration of Formula I at midpoint time of post dosing PET scans; type: in vivo; conditions: male, human; for concentration at 24 h: day 14, 24 h post last dose
Description: In alternative embodiments, provided are methods comprising administering a drug in an amount sufficient to achieve a therapeutic level range of plasma concentration (optionally human plasma concentration) at a steady state, and this example describes an exemplary analytical method to determine the concentration of Formula I in human plasma using an LC-MS-MS method known to the people skilled in the art, and an exemplary bioanalysis method to determine the concentration of formula I in human EDTA plasma.
(§1) A LC-MS/MS method was developed and validated for the quantitation of Formula I in 0.250 mL of human EDTA plasma in a total of 7 runs, out of which 1 run was rejected. The method utilized stable labeled Formula I as an internal standard. After the addition of the internal standard (equivalent to 285.4 ng/mL in human EDTA plasma) and 0.250 mL of each quality control (QC) sample and calibration standard, 0.525 mL of methyl t-butyl ether (MTBE) was added to the 96-well sample tubes. The organic layer was removed and evaporated to dryness using a liquid-liquid extraction (LLE). The residue was reconstituted and injected into the LC-MS/MS system. Chromatographic separation was achieved through gradient elution on an Acquity UPLC, BEH Shield RP18™, 50×2.1 mm, 1.7 μm particle size column. The mobile phase contained water, acetonitrile, ammonium formate, and formic acid. Detection was accomplished using a Sciex API 4000 tandem mass spectrometer in positive ion electrospray SRM mode. The standard curves, which ranged from 1.00 to 1000 ng/mL for Formula I, were fitted to a 1/×2 weighted linear regression model. The intra-assay precisions, based on four levels of analytical QCs (low, mid, GM, and high), were within 4.2% CV and inter-assay precisions were within 7.2% CV for the analyte. The assay accuracy, expressed as % DEV, was within 6.4% of the nominal concentration values for the analyte. […] The LLOQ response ratio, when compared to the QCO response ratio, was >, 5 in all matrix lots. The analyte was stable in human EDTA plasma for at least 24 h at room temperature, for at least 14 days at −20° C., and following at least 3 freeze-thaw cycles. The processed samples were stable for 72 hours (h) at room temperature.
Striatal receptor occupancy at dopamine transporters (DAT) and serotonin transporters (SERT) with plasma concentrations of Formula I at the midpoint time of the post dosing PET (positron emission tomography) scans (T=4 and 24) after once-a-day multiple doses of 3-60 mg and 10-60 mg for SERT and DAT healthy male cohorts, respectively (Tables below, RO stands for receptor occupancy). Post dosing PET scans were conducted at day 10 (4 h post last dose) and day 14 (24 h post last dose) assuming steady state conditions, using the specific DAT and SERT tracers ^11C-PE2I and ^11C-MADAM, respectively. For 45 mg and 60 mg cohorts, there was titration by administration of 30 mg for 3 days and then from day 4 the specified dose. Representative reports on using these two tracers are Leamed-Coughlin S M et al, Biol Psychiatry. 2003, 54(8):800-5; Jucaite A et al, Eur J Nucl Med Mol Imaging. 2006, 33(6):657-68; and Lundberg J et al, Int J Neuropsychopharmacol. 2007, 10(6):777-85.

[2] = Stability of Formula I in human EDTA plasma (LC-MS/MS validation); type: in vitro ADME
Protocol: as §1

## Clc1ccc(C2CNCc3cc(-c4ccc5ncnn5c4)ccc32)cc1Cl (centres unmarked) [Formula I, 7-([1,2,4]triazolo[1,5-a]pyridin-6-yl)-4-(3,4-dichlorophenyl)-1,2,3,4-tetrahydroisoquinoline]
[1]; 3 mg, SERT cohort, 3 mg once a day, day 10, 4 h post dose
  concentration at 4 h: 68 ng/mL
[1]; 3 mg, SERT cohort, 3 mg once a day
  concentration at 24 h: 52 ng/mL
[1]; 10 mg, DAT cohort, 10 mg once a day, day 10, 4 h post dose
  concentration at 4 h: 204 ng/mL
[1]; 10 mg, DAT cohort, 10 mg once a day
  concentration at 24 h: 141 ng/mL
[1]; 10 mg, SERT cohort, 10 mg once a day, day 10, 4 h post dose
  concentration at 4 h: 201 ng/mL
[1]; 10 mg, SERT cohort, 10 mg once a day
  concentration at 24 h: 127 ng/mL
[1]; 30 mg, SERT cohort, 30 mg once a day, day 10, 4 h post dose
  concentration at 4 h: 691 ng/mL
[1]; 30 mg, SERT cohort, 30 mg once a day
  concentration at 24 h: 668 ng/mL
[1]; 45 mg, DAT cohort, 45 mg once a day (30 mg for 3 days first), day 10, 4 h post dose
  concentration at 4 h: 809 ng/mL
[1]; 45 mg, DAT cohort, 45 mg once a day (30 mg for 3 days first)
  concentration at 24 h: 647 ng/mL
[1]; 45 mg, SERT cohort, 45 mg once a day (30 mg for 3 days first), day 10, 4 h post dose
  concentration at 4 h: 1160 ng/mL
[1]; 45 mg, SERT cohort, 45 mg once a day (30 mg for 3 days first)
  concentration at 24 h: 940 ng/mL
[1]; 60 mg, DAT cohort, 60 mg once a day (30 mg for 3 days first), day 10 (subject 77: day 11), 4 h post dose
  concentration at 4 h: 1340 ng/mL
[1]; 60 mg, DAT cohort, 60 mg once a day (30 mg for 3 days first)
  concentration at 24 h: 920 ng/mL
[2]; freeze-thaw
  stable in human EDTA plasma: at least 3 freeze-thaw cycles
[2]; room temperature
  stable in human EDTA plasma: at least 24 h
[2]; −20° C.
  stable in human EDTA plasma: at least 14 days
